Columns and labels:
[1] = system: transgenic soybean plants, Arabidopsis M335H, event SDS-9977; experiment: Greenhouse testing of transgenic soybean plants, Arabidopsis M335H; format: in vivo, Glycine max; settings: soybean SDS-9977, 5 days after herbicide treatment, average of 8 T1
Excerpt: (§1) Various methods for the production of stably transformed plants are well known in the art. Coumarone-derivative herbicide tolerant soybean (Glycine max) or corn (Zea mays) plants can be produced by a method described by Olhoft et al. (US patent 2009/0049567). Briefly, HPPD or HST encoding polynucleotides are cloned into a binary vector using standard cloning techniques as described by Sambrook et al. (Molecular cloning (2001) Cold Spring Harbor Laboratory Press). The final vector construct contains an HPPD or HST encoding sequence flanked by a promoter sequence (e.g. the ubiquitin promoter (PcUbi) sequence) and a terminator sequence (e.g. the nopaline synthase terminator (NOS) sequence) and a resistance marker gene cassette (e.g. AHAS) (FIG. 2). Optionally, the HPPD or HST gene can provide the means of selection. Agrobacterium-mediated transformation is used to introduce the DNA into soybean's axillary meristem cells at the primary node of seedling explants. After inoculation and co-cultivation with Agrobacteria, the explants are transferred to shoot induction medium without selection for one week. The explants are subsequently transferred to shoot induction medium with 1-3 μM imazapyr (Arsenal) for 3 weeks to select for transformed cells. Explants with healthy callus/shoot pads at the primary node are then transferred to shoot elongation medium containing 1-3 μM imazapyr until a shoot elongates or the explant dies. After regeneration, transformants are transplanted to soil in small pots, placed in growth chambers (16 hr day/8 hr night; 25° C. day/23° C. night; 65% relative humidity; 130-150 mE m−2 s−1) and subsequently tested for the presence of the T-DNA via Taqman analysis. After a few weeks, healthy, transgenic positive, single copy events are transplanted to larger pots and allowed to grow in the growth chamber. Transformation of corn plants is done by a method described by McElver and Singh (WO 2008/124495). Plant transformation vector constructs containing HPPD or HST sequences are introduced into maize immature embryos via Agrobacterium-mediated transformation. Transformed cells are selected in selection media supplemented with 0.5-1.5 μM imazethapyr for 3-4 weeks. Transgenic plantlets are regenerated on plant regeneration media and rooted afterwards. Transgenic plantlets are subjected to TaqMan analysis for the presence of the transgene before being transplanted to potting mixture and grown to maturity in greenhouse. Arabidopsis thaliana is transformed with HPPD or HST sequences by floral dip method as described by McElver and Singh (WO 2008/124495). Transgenic Arabidopsis plants are subjected to Tag Man analysis for analysis of the number of integration loci. Transformation of Oryza sativa (rice) are done by protoplast transformation as described by Peng et al. (U.S. Pat. No. 6,653,529)
(§2) Transgenic plants expressing heterologous HPPD or HST enzymes are tested for tolerance against coumarone-derivative herbicides in greenhouse experiments.
(§3) For post emergence treatment, the test plants are first grown to a height of 3 to 15 cm, depending on the plant habit, and only then treated with the herbicides. For this purpose, the test plants are either sown directly and grown in the same containers, or they are first grown separately and transplanted into the test containers a few days prior to treatment.
(§4) Depending on the species, the plants are kept at 10-25° C. or 20-35° C. The test period extends over 3 weeks. During this time, the plants are tended and their response to the individual treatments is evaluated. […] Tolerance to coumarone-derivative herbicides can also be assessed in Arabidopsis. In this case transgenic Arabidopsis thaliana plants are assayed for improved tolerance to coumarone-derivative herbicides in 48-well plates. Seeds are surface sterilized by stirring for 5 min in ethanol+water (70+30 by volume), rinsing one time with ethanol+water (70+30 by volume) and two times with a sterile, deionized water. […]

[2] = system: transgenic soybean plants, Arabidopsis Q293S, event SDS-10204; experiment: Greenhouse testing of transgenic soybean plants, Arabidopsis Q293S; format: in vivo, Glycine max; settings: soybean SDS-10204, 5 days after herbicide treatment, average of 8 T1
Excerpt: as §1, §2, §3, §4

[3] = system: transgenic soybean plants, Glycine Max HPPD, event SDS-10298; experiment: Greenhouse testing of transgenic soybean plants, Glycine Max HPPD; format: in vivo; settings: soybean SDS-10298, 5 days after herbicide treatment, average of 8 T1
Excerpt: as §1, §2, §3, §4

[4] = system: transgenic corn plants, Arabidopsis HPPD, event SDM-71884; experiment: Greenhouse testing of transgenic corn plants, Arabidopsis HPPD; format: in vivo, Zea mays; settings: corn SDM-71884, 5 days after herbicide treatment, average of 8 T1
Excerpt: as §1, §2, §3, §4

Compound: CC1(C)c2cccnc2C(O)=C(c2ccc(Cl)nc2Cl)S1(=O)=O [Inhibitor 2, 7-(2,6-dichloro-3-pyridyl)-5,5-dimethyl-6,6-dioxo-thiopyrano[4,3-b]pyridin-8-ol]
- Injury evaluation, scale of 1-100, bleaching phenotype ([1]; 2.5 g/ha): 1
- Injury evaluation, scale of 1-100, bleaching phenotype ([1]; 10 g/ha): 1
- Injury evaluation, scale of 1-100, bleaching phenotype ([1]; 40 g/ha): 5
- Injury evaluation, scale of 1-100, bleaching phenotype ([2]; 2.5 g/ha): 1
- Injury evaluation, scale of 1-100, bleaching phenotype ([2]; 10 g/ha): 4
- Injury evaluation, scale of 1-100, bleaching phenotype ([2]; 40 g/ha): 21
- Injury evaluation, scale of 1-100, bleaching phenotype ([3]; 2.5 g/ha): 4
- Injury evaluation, scale of 1-100, bleaching phenotype ([3]; 10 g/ha): 5
- Injury evaluation, scale of 1-100, bleaching phenotype ([3]; 40 g/ha): 17
- Injury evaluation, scale of 1-100, bleaching phenotype ([4]; 2.5 g/ha): 4
- Injury evaluation, scale of 1-100, bleaching phenotype ([4]; 10 g/ha): 13
- Injury evaluation, scale of 1-100, bleaching phenotype ([4]; 40 g/ha): 4

Compound: Cc1c(C(=O)c2cnn(C)c2O)ccc(S(C)(=O)=O)c1C1=NOCC1 [Topramezone, reference compound]
- Injury evaluation, scale of 1-100, bleaching phenotype ([1]; 6.25 g/ha): 8
- Injury evaluation, scale of 1-100, bleaching phenotype ([1]; 25 g/ha): 4
- Injury evaluation, scale of 1-100, bleaching phenotype ([1]; 100 g/ha): 15
- Injury evaluation, scale of 1-100, bleaching phenotype ([2]; 6.25 g/ha): 10
- Injury evaluation, scale of 1-100, bleaching phenotype ([2]; 25 g/ha): 17
- Injury evaluation, scale of 1-100, bleaching phenotype ([2]; 100 g/ha): 21
- Injury evaluation, scale of 1-100, bleaching phenotype ([3]; 6.25 g/ha): 7
- Injury evaluation, scale of 1-100, bleaching phenotype ([3]; 25 g/ha): 18
- Injury evaluation, scale of 1-100, bleaching phenotype ([3]; 100 g/ha): 28
- Injury evaluation, scale of 1-100, bleaching phenotype ([4]; 6.25 g/ha): 0
- Injury evaluation, scale of 1-100, bleaching phenotype ([4]; 25 g/ha): 0
- Injury evaluation, scale of 1-100, bleaching phenotype ([4]; 100 g/ha): 1

From patent US20140357487A1, “PLANTS HAVING INCREASED TOLERANCE TO HERBICIDES” (BASF SE, priority 2011, published 2014)
